Where two headings read alike, the source gives them in different places.
Assays:
PD-1/PD-L1 = PD-1/PD-L1 (Homo sapiens (Human), UniProt Q9NZQ7); assay: Homogeneous Time-Resolved Fluorescence (HTRF) PD-1/PD-L1 binding assay; details: recombinant human PD-1 and PD-L1
Method: The assays were conducted in a standard black 384-well polystyrene plate with a final volume of 20 μL. Inhibitors were first serially diluted in DMSO and then added to the plate wells before the addition of other reaction components. The final concentration of DMSO in the assay was 1%. The assays were carried out at 25° C. in the PBS buffer (pH 7.4) with 0.05% Tween-20 and 0.1% BSA. Recombinant human PD-L1 protein (19-238) with a His-tag at the C-terminus was purchased from AcroBiosystems (PD1-H5229). Recombinant human PD-1 protein (25-167) with Fc tag at the C-terminus was also purchased from AcroBiosystems (PD1-H5257). PD-L1 and PD-1 proteins were diluted in the assay buffer and 10 μL was added to the plate well. Plates were centrifuged and proteins were preincubated with inhibitors for 40 minutes. The incubation was followed by the addition of 10 μL of HTRF detection buffer supplemented with Europium cryptate-labeled anti-human IgG (PerkinElmer-AD0212) specific for Fc and anti-His antibody conjugated to SureLight®-Allophycocyanin (APC, PerkinElmer-AD0059H). After centrifugation, the plate was incubated at 25° C. for 60 min. before reading on a PHERAstar FS plate reader (665 nm/620 nm ratio). Final concentrations in the assay were—3 nM PD1, 10 nM PD-L1, 1 nM europium anti-human IgG and 20 nM anti-His-Allophycocyanin. IC50 determination was performed by fitting the curve of percent control activity versus the log of the inhibitor concentration using the GraphPad Prism 5.0 software.

[1] = tested on: U2OS/PD-L1 cells and Jurkat-PD-1-SHP cells; assay: Src homology region 2 domain-containing phosphatase (SHP) assay; type: cell-based; details: PathHunter chemiluminescence, 2 hours
Method: U2OS/PD-L1 cells (DiscoveRx Corporation) were maintained in McCoy's 5A medium with addition of 10% FBS, 0.25 μg/mL Puromycin. After removing the culture media, the cell medium was replaced with assay medium (RPMI1640 medium with 1% FBS). The U2OS/PD-L1 cells were then added in 384-well black clear bottom assay plate (CELLCOAT® Tissue Culture Plates, Greiner Bio-One) at 5000 cells per well in 20 μL assay medium. Test compounds were prepared by serial dilution in DMSO and 125 nL compound were first transferred to the 384 REMP plate well (Thermofisher) by ECHO liquid handler (Labcyte) followed with addition of 27.5 μL assay medium. 5 µL/well compounds in the assay medium were transferred to the cell plate with 0.05% DMSO in the final assay at 0.25 μM. Jurkat-PD-1-SHP cells (DiscoveRx Corporation) were cultured in RPMI1640 medium supplemented with 10% FBS, 250 μg/mL Hygromycin B, 500 μg/mL G418. After the replacement of culture media with assay medium, 5,000 Jurkat-PD-1-SHP cells in 20 μL were dispensed into each well. The assay plate was incubated at 37° C., 5% CO2 for 2 hours before 2.5 μL PathHunter reagent 1 (DiscoveRx Corporation) were added to each well. The assay plate was shaken for 1 min at 350 rpm in the dark followed with addition of 10 μL PathHunter reagent 2 (DiscoveRx Corporation). Chemiluminescent signal was recorded with TopCount reader (Perkin Elmer) after incubation at room temperature for 1 hour. Wells with DMSO were served as the positive controls and wells containing no cells were used as negative controls. IC50 determination was performed by fitting the curve of percentage of control activity versus the log of the compound concentration using the GraphPad Prism 6.0 software.

[2] = tested on: PD-L1 aAPC/CHO-K1 cells and Jurkat-PD-1-NFAT effector cells; assay: Nuclear factor of activated T-cells (NFAT) assay; type: cell-based; details: luminescence, 24 hours
Method: PD-L1 aAPC/CHO-Klcells (Promega) were maintained in F-12 medium with addition of 10% FBS, 200 μg/mL Hygromycin B, 250 μg/mL Geneticin (G418). Jurkat-PD-1-NFAT effector cells (Promega) were cultured in RPMI 1640 medium supplemented with 10% FBS, 100 μg/mL Hygromycin B, 500 μg/mL G418. The culture media of PD-L1 aAPC/CHO-K1 cells were first replaced with assay medium (RPMI1640 medium with 1% FBS). The PD-L1 aAPC/CHO-Klcells were then added in a white 384-well white clear bottom assay plate (CELLCOAT® Tissue Culture Plates, Greiner Bio-One) at 8000 per well in 10 μL assay medium. Test compounds were prepared by serial dilution in DMSO and 0.8 μL test compounds in DMSO were first transferred to the 384 REMP plate well (Thermofisher) by PlateMate Plus (Thermofisher) followed with addition of 50 μL plating medium. 5 μL compounds in the assay medium were transferred to the cells with 0.4% DMSO in the final assay at 2 μM. After removing the culture media, 10,000 Jurkat-PD-1-NFAT effector cells in 5 μL assay medium was dispensed into each well. The assay plate was incubated at 37° C., 5% CO2 for 24 hours. After the assay plate was equilibrated to room temp for 15 minutes, 20 μL/well of Bio-Glo™ reagent (Promega) were added. After 8 minutes incubation at room temperature, luminescence was read at with Pherastar microplate reader (BMG Labtech). The fold of induction (FOI) was calculated based on the ratio of luminescence normalized to the DMSO wells within each assay plate. The maximum percentage of induction was reported based on the ratio between the highest FOI of each compound and the maximum FOI of control compound within each assay plate. Wells with DMSO were served as the negative controls and wells containing control compound with the highest FOI were used as positive controls. EC50 determination was performed by fitting the curve of percent control activity versus the log of the compound concentration using the GraphPad Prism 6.0 software.

PD-L1 = PD-L1 (Homo sapiens (Human), UniProt Q9NZQ7); assay: PD-L1 whole blood internalization assay; type: cell-based; details: PD-L1 internalization in human whole blood, CD14+ cells, interferon γ, 24 hour
Method: To determine PD-L1 internalization in human whole blood, normal human blood (Biological Specialty Corp, Colmar. Pa.) was incubated in the presence or absence of a concentration range of test compounds and 1 ng/mL human interferon γ (R&D Systems Inc. Minn. […] Blood was then stained with PD-L1 (MIH1, eBioscience; or BD Biosciences San Jose, Calif.), CD14 (Life Technologies, Carlsbad, Calif.) for 30 minutes in the dark at room temperature. Whole Blood/red cells were lysed/fixed (lysis buffer BD Biosciences) for 5 minutes at 37° C. in the dark and then centrifuged at 1600 RPM for 5 minutes. Cells were resuspended in Stain Buffer (BD Bioscience, San Jose, Calif.) and transferred into 96 well round bottom plates (Corning). Cells were gated on CD14+(BD Biosciences) and PD-L1 expression determined by mean fluorescence intensity (MFI) (BD LSRFortessa™ X-20). IC50 determination was performed by fitting the curve of compound percent inhibition versus the log of the compound concentration using the GraphPad Prism 7.0 software.

[3] = In vivo pharmacokinetics in rats; set-up: species or system Sprague Dawley rats; details: rat, cassette dosing; for Vd: read-out: Vss; for Cmax / AUC(0-inf) / F: 3.0 mg/kg PO
Method: For in vivo pharmacokinetic experiments, test compounds were administered to male Sprague Dawley rats or male and female Cynomolgus monkeys intravenously or via oral gavage. For intravenous (IV) dosing, test compounds were dosed at 0.5 to 1 mg/kg using a formulation of 10% dimethylacetamide (DMAC) in acidified saline via IV bolus for rat and 5 min or 10 min IV infusion for monkey. For oral (PO) dosing, test compounds were dosed at 1.0 to 3.0 mg/kg using 5% DMAC in 0.5% methylcellulose in citrate buffer (pH 3.5). Blood samples were collected at predose and various time points up to 24 hours postdose. All blood samples were collected using EDTA as the anticoagulant and centrifuged to obtain plasma samples. The plasma concentrations of test compounds were determined by LC-MS methods. The measured plasma concentrations were used to calculate PK parameters by standard noncompartmental methods using Phoenix® WinNonlin software program (version 7.0, Pharsight Corporation).
In rats and monkeys, cassette dosing of test compounds were conducted to obtain preliminary PK parameters.

[4] = male, Sprague-Dawley, plasma, 1.0 mg/kg IV
[5] = male, Sprague-Dawley, plasma, read-out: AUC0-inf

Chain of PD-L1 (Q9NZQ7 19-290): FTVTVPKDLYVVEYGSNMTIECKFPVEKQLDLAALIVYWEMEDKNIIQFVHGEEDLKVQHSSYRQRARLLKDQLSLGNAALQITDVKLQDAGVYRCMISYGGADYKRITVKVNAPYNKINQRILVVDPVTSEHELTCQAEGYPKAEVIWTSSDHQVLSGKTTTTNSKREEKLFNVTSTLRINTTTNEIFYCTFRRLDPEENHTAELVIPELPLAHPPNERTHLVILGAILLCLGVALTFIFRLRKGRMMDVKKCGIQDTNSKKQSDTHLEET
Chain of PD-1/PD-L1 (Q9NZQ7 19-238): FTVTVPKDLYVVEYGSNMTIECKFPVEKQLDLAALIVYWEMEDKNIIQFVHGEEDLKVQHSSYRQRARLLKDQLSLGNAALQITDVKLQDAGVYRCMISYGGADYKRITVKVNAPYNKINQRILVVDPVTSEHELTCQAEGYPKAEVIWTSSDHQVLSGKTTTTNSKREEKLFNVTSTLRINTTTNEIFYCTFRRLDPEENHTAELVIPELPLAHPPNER

SMILES	IC50 (PD-1/PD-L1) [nM]	IC50 ([1]; Homo sapiens, U2OS) [nM]	IC50 (PD-L1) [nM]	clearance [3, 4] [mL/min/kg]	half-life [3, 4] [h]	Vd [3, 4] [L/kg]	Cmax ([3]; male, Sprague-Dawley, plasma) [nM]	AUC(0-inf) [3, 5] [µM·h]	F [3] [%]	IC50 [1] [nM]	Cl ([3]; 1.0 mg/kg IV) [mL/min/kg]	Vss ([3]; 1.0 mg/kg IV) [L/kg]	t1/2 ([3]; 1.0 mg/kg IV) [h]	AUC(0-inf) [3] [µM·h]	Cmax [3] [nM]	EC50 ([2]; Cricetulus griseus, CHO-K1) [nM]	EC50 [2] [nM]
Cc1c(NC(=O)c2nc3c(n2C)CCN(CC24CCC(C(=O)O)(CC2)C4)C3)cccc1-c1cccc(NC(=O)c2nc3c(n2C)CCN(C)C3)c1Cl [Example 102]	2.4	4.9	149	19	1.9	1.96	398	1.5	39							76	
CN1CCc2c(nc(C(=O)Nc3cccc(-c4cccc(NC(=O)c5nc6c(n5C)CCN(CC57CCC(C(=O)O)(CC5)C7)C6)c4Cl)c3Cl)n2C)C1 [Example 84]	8.3	6.9	97	16.5	3.47	2.45	234	1.2	28							47	
Cc1c(-c2nc3cc(CN4CC[C@@H](O)C4)cc(C#N)c3o2)cccc1-c1cccc(NC(=O)c2nc3c(n2C)CCN(CCC2CCC(C(=O)O)CC2)C3)c1Cl (stereo partly shown) [Example 265]	2.3	4.9	62	63.7		4.45	57	0.398	8							15	
CCN1CCc2c(nc(C(=O)Nc3cccc(-c4cccc(NC(=O)c5nc6c(n5C)CCN(CC57CCC(C(=O)O)(CC5)C7)C6)c4Cl)c3Cl)n2C)C1 [Example 176, reference compound]	2.9	17	732													122	
Cc1c(-c2nc3cc(CN4CC[C@@H](O)C4)cc(C#N)c3o2)cccc1-c1cccc(NC(=O)c2nc3c(n2C)CCN(CC24CCC(C(=O)O)(CC2)C4)C3)c1Cl [Example 267]	2.3	7.8	121		3.28	2.22	108	0.687	12							39	

These reach a lower IC50 (PD-1/PD-L1). Values come first.

IC50 (PD-1/PD-L1) [nM]	IC50 ([1]; Homo sapiens, U2OS) [nM]	IC50 (PD-L1) [nM]	clearance [3, 4] [mL/min/kg]	half-life [3, 4] [h]	Vd [3, 4] [L/kg]	Cmax ([3]; male, Sprague-Dawley, plasma) [nM]	AUC(0-inf) [3, 5] [µM·h]	F [3] [%]	IC50 [1] [nM]	Cl ([3]; 1.0 mg/kg IV) [mL/min/kg]	Vss ([3]; 1.0 mg/kg IV) [L/kg]	t1/2 ([3]; 1.0 mg/kg IV) [h]	AUC(0-inf) [3] [µM·h]	Cmax [3] [nM]	SMILES	EC50 ([2]; Cricetulus griseus, CHO-K1) [nM]	EC50 [2] [nM]
1.5		166						38	4.4	26.2	2.48	2.21	0.956	231	Cn1c(C(=O)Nc2cccc(-c3cccc(NC(=O)c4nc5c(n4C)CCN(CC46CCC(C(=O)O)(CC4)C6)C5)c3Cl)c2Cl)nc2c1CCN(CCO)C2 [Example 180]		30
1.7	4.4	92													C[C@@H](O)CN1CCc2c(nc(C(=O)Nc3cccc(-c4cccc(NC(=O)c5nc6c(n5C)CCN(CC57CCC(C(=O)O)(CC5)C7)C6)c4Cl)c3Cl)n2C)C1 [Example 182, reference compound]	30	
1.8	5.6	49													Cn1c(C(=O)Nc2cccc(-c3cccc(NC(=O)c4nc5c(n4C)CCN(C4CCC(O)CC4)C5)c3Cl)c2Cl)nc2c1CCN(CC13CCC(C(=O)O)(CC1)C3)C2 (stereo not shown) [Example 183, reference compound]	18	
1.7	3	20													Cc1c(Nc2nc(C(F)F)nc3cc(CN4CC(C)(O)C4)cnc23)cccc1-c1cccc(NC(=O)c2nc3c(n2C)CCN(CCC24CCC(C(=O)O)(CC2)C4)C3)c1Cl [Example 14, 4-(2-(2-((2-chloro-3′-((2-(difluoromethyl)-7-((3-hydroxy-3-methylazetidin-1-yl)methyl)pyrido[3,2-d]pyrimidin-4-yl)amino)-2′-methyl-[1,1′-biphenyl]-3-yl)carbamoyl)-1-methyl-1,4,6,7-tetrahydro-5H-imidazo[4,5-c]pyridin-5-yl)ethyl)bicyclo[2.2.1]heptane-1-carboxylic Acid]	3	

Source: patent US11401279B2, “Pyrido[3,2-d]pyrimidine compounds as immunomodulators” (Incyte Corporation, priority 2019, dated 2022)
